Laboratory results as given in publication PMC9220805, “The 26S Proteasome Switches between ATP-Dependent and -Independent Mechanisms in Response to Substrate Ubiquitination” (Biomolecules, 2022).

Tested on: T1, 26S proteasome (WT proteasome)
T1 construct: gene RPT1; native 26S holoenzyme (19S + 20S) purified by 3xFLAG-tagged Rpn11; with Ubiquitin carboxyl-terminal hydrolase RPN11
Assay: SDS-PAGE fluorescence degradation assay of Cy5-labelled ubiquitinated substrate
Type: biochemical, Saccharomyces cerevisiae
Conditions: 1 mM ATPγS in place of ATP regeneration system; 100 nM proteasome, 20 nM substrate, 5 mM MgCl2, pH 7.5, 30 °C; nonhydrolyzable ATP analog

Nc1ncnc2c1ncn2[C@@H]1O[C@H](COP(=O)(O)OP(=O)(O)OP(O)(O)=S)[C@@H](O)[C@H]1O [ATPγS]
SDS-PAGE fluorescence degradation assay of Cy5-labelled ubiquitinated substrate: ATPγS considerably slowed degradation of the ubiquitinated-Rpn4-containing substrate
